Literature values in patent publication US20110008801A1, “METHODS FOR MEASURING CELL-CELL OR CELL-MATRIX ADHESIVE FORCES AND COMPOUNDS FOR DISRUPTING ADHESIVE FORCES IN BIOLOGICAL SYSTEMS” (Worcester Polytechnic Institute, priority 2006, published 2011).

Test system: UPEC, type 1 and P fimbriated E. coli

SMILES: O=C(CO)[C@@H](O)[C@H](O)[C@H](O)CO [fructose]
- adhesion of fimbriated E. coli: inhibited the adhesion of bacteria with type 1 fimbriae only
